Laboratory results published in the CheMixHub viscosity set.

Experiment: xn = mol fraction of the nth substance listed

COC(=O)OC + CCO
101.3 kPa
Settings	viscosity [mPa·s]
293.15 K, x1 = 0.0498	1.07
293.15 K, x1 = 0.0978	0.974
293.15 K, x1 = 0.176	0.853
293.15 K, x1 = 0.2928	0.74
293.15 K, x1 = 0.4053	0.675
293.15 K, x1 = 0.4981	0.646
293.15 K, x1 = 0.5982	0.625
293.15 K, x1 = 0.6962	0.613
293.15 K, x1 = 0.8024	0.609
293.15 K, x1 = 0.8894	0.607
293.15 K, x1 = 0.9516	0.618
298.15 K, x1 = 0.0598	0.966
298.15 K, x1 = 0.095	0.897
298.15 K, x1 = 0.1692	0.786
298.15 K, x1 = 0.2725	0.685
298.15 K, x1 = 0.3854	0.625
298.15 K, x1 = 0.4778	0.594
298.15 K, x1 = 0.5686	0.573
298.15 K, x1 = 0.6777	0.561
298.15 K, x1 = 0.7915	0.555
298.15 K, x1 = 0.8775	0.556
298.15 K, x1 = 0.9366	0.565
303.15 K, x1 = 0.0673	0.832
303.15 K, x1 = 0.1142	0.752
303.15 K, x1 = 0.2249	0.627
303.15 K, x1 = 0.2894	0.588
303.15 K, x1 = 0.3906	0.541
303.15 K, x1 = 0.4848	0.521
303.15 K, x1 = 0.5996	0.512
303.15 K, x1 = 0.6931	0.513
303.15 K, x1 = 0.8038	0.512
303.15 K, x1 = 0.9072	0.52
303.15 K, x1 = 0.9462	0.527
313.15 K, x1 = 0.0504	0.731
313.15 K, x1 = 0.0934	0.662
313.15 K, x1 = 0.2082	0.535
313.15 K, x1 = 0.3087	0.472
313.15 K, x1 = 0.393	0.45
313.15 K, x1 = 0.5026	0.44
313.15 K, x1 = 0.6011	0.438
313.15 K, x1 = 0.7052	0.44
313.15 K, x1 = 0.7968	0.445
313.15 K, x1 = 0.9075	0.463
313.15 K, x1 = 0.9507	0.475

ClC(Cl)C(Cl)Cl + CCO
viscosity [mPa·s], 101.32 kPa
Settings	x2 = 0.167	x2 = 0.3109	x2 = 0.4362	x2 = 0.5461	x2 = 0.6435	x2 = 0.7303	x2 = 0.8081	x2 = 0.8783	x2 = 0.942
303.15 K	1.369	1.324	1.257	1.21	1.166	1.12	1.095	1.047	1.026
313.15 K	1.24	1.16	1.107	1.049	1.007	0.965	0.934	0.903	0.868
323.15 K	1.121	1.068	0.961	0.91	0.869	0.819	0.795	0.787	0.732

COCCOCCOC + CCOC(=O)CCC(=O)OCC
viscosity [mPa·s], 101.33 kPa
Settings	x1 = 0.1002	x1 = 0.2023	x1 = 0.3012	x1 = 0.4033	x1 = 0.5032	x1 = 0.6024	x1 = 0.7034	x1 = 0.801	x1 = 0.9025
298.15 K	2.198	2.009	1.843	1.681	1.535	1.412	1.296	1.187	1.077
303.15 K	1.951	1.792	1.65	1.513	1.386	1.283	1.184	1.086	0.994
308.15 K	1.737	1.599	1.476	1.355	1.251	1.163	1.082	0.997	0.92
313.15 K	1.559	1.438	1.33	1.229	1.139	1.061	0.989	0.919	0.852
318.15 K	1.406	1.299	1.206	1.115	1.034	0.969	0.908	0.849	0.792

COCCOCCOC + CCOC(=O)OCC
viscosity [mPa·s], 101.33 kPa
Settings	298.15 K	308.15 K	318.15 K
x1 = 0.0487	0.761	0.669	0.572
x1 = 0.0871	0.774	0.674	0.593
x1 = 0.1367	0.787	0.68	0.6
x1 = 0.18	0.798	0.687	0.607
x1 = 0.2621	0.817	0.706	0.618
x1 = 0.306	0.828	0.713	0.626
x1 = 0.3935	0.849	0.731	0.64
x1 = 0.4303	0.857	0.739	0.652
x1 = 0.4835	0.87	0.747	0.656
x1 = 0.557	0.886	0.766	0.665
x1 = 0.6202	0.899	0.772	0.674
x1 = 0.6549	0.907	0.783	0.679
x1 = 0.7104	0.92	0.79	0.687
x1 = 0.7618	0.933	0.799	0.695
x1 = 0.8134	0.945	0.809	0.702
x1 = 0.8478	0.952	0.814	0.707
x1 = 0.938	0.97	0.825	0.719
x1 = 0.9718	0.979	0.832	0.725
x2 = 0.0073	0.987	0.837	0.727

CC=CC(=O)O + CCOC(C)=O
viscosity [mPa·s], 101 kPa
Settings	x1 = 0.0495	x1 = 0.0995	x1 = 0.1509	x1 = 0.1971	x1 = 0.2463	x1 = 0.2605
298.15 K	0.4663	0.5094	0.5447	0.5907	0.6329	0.6467
303.15 K	0.4417	0.4788	0.5181	0.5583	0.5921	0.6093
313.15 K	0.4005	0.4309	0.4587	0.494	0.5254	0.5496
323.15 K	0.361	0.3895	0.413	0.4469	0.4704	0.4917

COCCOCCOC + CCOC(C)=O
viscosity [mPa·s], 101.33 kPa
Settings	x1 = 0.1016	x1 = 0.2005	x1 = 0.3016	x1 = 0.4007	x1 = 0.4999	x1 = 0.6005	x1 = 0.6994	x1 = 0.8013	x1 = 0.8999
298.15 K	0.477	0.527	0.579	0.633	0.69	0.748	0.815	0.867	0.92
303.15 K	0.451	0.497	0.546	0.594	0.645	0.698	0.75	0.807	0.854
308.15 K	0.428	0.469	0.513	0.558	0.604	0.653	0.706	0.748	0.794
313.15 K	0.406	0.445	0.485	0.526	0.569	0.612	0.659	0.7	0.74
318.15 K	0.385	0.421	0.459	0.496	0.535	0.575	0.616	0.653	0.689

ClC(Cl)C(Cl)Cl + CCOC(C)=O
303.15 K, 101.3 kPa
Settings	viscosity [mPa·s]
x2 = 0.15	1.358
x2 = 0.2009	1.306
x2 = 0.3141	1.18
x2 = 0.3963	1.08
x2 = 0.4968	0.9507
x2 = 0.5996	0.8225
x2 = 0.7128	0.6857
x2 = 0.8056	0.5773
x2 = 0.9246	0.4625

CCCCCCN + CCOCCO
308.15 K, 101 kPa
Settings	viscosity [mPa·s]
x2 = 0.1321	0.7283
x2 = 0.255	0.8766
x2 = 0.3698	1.026
x2 = 0.4772	1.172
x2 = 0.5779	1.305
x2 = 0.6726	1.426
x2 = 0.7616	1.469
x2 = 0.8456	1.457
x2 = 0.9249	1.445

Oc1ccccc1 + CN(C)c1ccccc1
viscosity [mPa·s], 101 kPa
Settings	293.15 K	302.95 K	313.35 K
x1 = 0.0998	–	1.351	1.159
x1 = 0.114	1.684	–	–
x1 = 0.2041	–	1.629	1.354
x1 = 0.2122	2.045	–	–
x1 = 0.2884	2.415	–	–
x1 = 0.2958	–	1.936	1.57
x1 = 0.385	–	2.315	1.84
x1 = 0.3889	3.085	–	–
x1 = 0.4659	3.77	–	–
x1 = 0.477	–	2.83	2.185
x1 = 0.5458	4.7	–	–
x1 = 0.5549	–	3.33	2.51
x1 = 0.6187	5.64	–	–
x1 = 0.6224	–	3.93	2.855
x1 = 0.6851	6.75	–	–
x1 = 0.6955	–	4.705	3.34
x1 = 0.75	8.01	–	–
x1 = 0.7591	–	5.325	3.715
x1 = 0.8215	9.4	–	–
x1 = 0.8274	–	6.025	4.15
x1 = 0.8827	10.3	–	–
x1 = 0.8884	–	6.48	4.4
x1 = 0.9428	10.87	–	–
x1 = 0.9463	–	6.86	4.59

CC[P+](c1ccccc1)(c1ccccc1)c1ccccc1.[Br-] + CN(CCO)CCO
viscosity [mPa·s], 100 kPa
Settings	293.15 K	303.15 K	313.15 K	323.15 K
x1 = 0.05673	152.7	81.77	47.16	29.08
x1 = 0.08776	192.3	100.3	56.67	34.34
x1 = 0.1208	238	121	66.81	39.76

ClC(Cl)C(Cl)Cl + CNc1ccccc1
303 K, 101.33 kPa
Settings	viscosity [mPa·s]
x2 = 0.1012	1.439
x2 = 0.1991	1.49
x2 = 0.3016	1.541
x2 = 0.4007	1.59
x2 = 0.5004	1.633
x2 = 0.6007	1.66
x2 = 0.7017	1.686
x2 = 0.7992	1.707
x2 = 0.9013	1.73

COCCOCCOC + CO
viscosity [mPa·s], 100 kPa
Settings	293.15 K	298.15 K	303.15 K
x2 = 0.056	1.064	0.984	0.903
x2 = 0.1076	1.05	0.97	0.89
x2 = 0.202	1.015	0.94	0.863
x2 = 0.2929	0.99	0.916	0.84
x2 = 0.3965	0.951	0.882	0.808
x2 = 0.4979	0.909	0.843	0.775
x2 = 0.5993	0.863	0.8	0.735
x2 = 0.6891	0.814	0.756	0.693
x2 = 0.7967	0.747	0.697	0.641
x2 = 0.8412	0.718	0.669	0.615
x2 = 0.8996	0.674	0.629	0.578
x2 = 0.948	0.637	0.595	0.546
